The source of these data is ChEMBL document CHEMBL1201862, “PubChem BioAssay data set” (2004).

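All cell lines were grown in 96-well plates and treated with compound for 48 hours. Here, GI50 denotes the concentration required for 50% inhibition of growth.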 Active and inactive are the calls of the source. Cut-off read from the data, not from the text of the source: active = GI50 up to about 1.1 µM and inactive = higher. Bounds are passed on as bounds.

Test systems include COLO 205; NCI-H226; SR; SW-620; SNB-19; KM-20L2; MOLT-4; LOX IMVI; HOP-62; A498; UACC-257; ACHN; Malme-3M; SK-MEL-28; T47D; MDA-MB-231; BT-549; NCI/ADR-RES; MDA-N; MCF7.
Test in all cases: growth of human tumour cells (NCI), 48 h

`CC(=O)/C(=N\O)C(=O)NCCc1ccccc1`: the GI50 in the assay with COLO 205 is 45.9 µM (inactive); with NCI-H226, > 100 µM (inactive); in the assay with SR, > 100 µM (inactive); in the assay on SW-620, 38.8 µM (inactive); with SNB-19 it was > 100 µM (inactive); in the assay with KM-20L2, 78.9 µM (inactive). The GI50 in the assay with MOLT-4 is > 100 µM (inactive); with LOX IMVI, 41.8 µM (inactive); in the assay with HOP-62, > 100 µM (inactive); in the assay on A498, > 100 µM (inactive); in the assay on UACC-257, 57.7 µM (inactive); with ACHN, > 100 µM (inactive). Also, the GI50 in the assay on Malme-3M and in the assay on SK-MEL-28 was > 100 µM (inactive) each time.

Turning to `C[N+](C)(Cc1ccc(NC(=O)CCCC(=O)ON2C(=O)CCC2=O)cc1)c1ccccc1`, the GI50 with COLO 205, in the assay on NCI-H226, in the assay with SR, in the assay with SW-620, in the assay on SNB-19 and in the assay with KM-20L2 was < 0.01 µM (active) each time. The GI50 in the assay on MOLT-4, in the assay on LOX IMVI, with HOP-62, with A498, with UACC-257 and in the assay with ACHN was < 0.01 µM (active) throughout. In addition, the GI50 in the assay with Malme-3M and in the assay on SK-MEL-28 was < 0.01 µM (active) in each case.

As for `C[C@@H]1O[C@@H](O[C@H]2CC[C@]3(C=O)[C@H]4CC[C@]5(C)[C@@H](c6ccc(=O)oc6)CC[C@]5(O)[C@@H]4CC[C@]3(O)C2)[C@H](O)[C@H](O)[C@H]1O[C@@H]1O[C@H](CO)[C@@H](O)[C@H](O)[C@H]1O` [HELLEBRIN], the GI50 in the assay with COLO 205 is 0.0271 µM (active); with NCI-H226, 0.0231 µM (active); with SR it was 0.00601 µM (active); with SW-620 it was 0.0375 µM (active); in the assay with SNB-19 it was 0.0451 µM (active); in the assay with KM-20L2, 0.0187 µM (active). In addition, the GI50 was 0.00302 µM (active) in the assay with MOLT-4; 0.0166 µM (active) in the assay on T47D; 0.0379 µM (active) with MDA-MB-231; 0.00509 µM (active) in the assay with BT-549; 0.0166 µM (active) with LOX IMVI; 0.0375 µM (active) with HOP-62. For the same molecule, the GI50 is 0.0152 µM (active) in the assay on NCI/ADR-RES; 0.0284 µM (active) with A498; 0.0243 µM (active) with UACC-257; 0.0223 µM (active) with MDA-N; 0.0375 µM (active) in the assay on MCF7; 0.00423 µM (active) in the assay with ACHN. In addition, the GI50 in the assay with SK-MEL-28 is 0.0375 µM (active).

On to `CC(C)(CN1C(=O)C(Cl)=C(Cl)C1=O)CN1C(=O)C(Cl)=C(Cl)C1=O`, for which the GI50 in the assay with COLO 205 is 3.23 µM (inactive); in the assay with NCI-H226 it was 22.5 µM (inactive); in the assay on SR, 2.58 µM (inactive); in the assay with SW-620, 5 µM (inactive); in the assay with SNB-19 it was 23 µM (inactive); in the assay on KM-20L2, 16.6 µM (inactive). Also, the GI50 with MOLT-4 was 0.966 µM (active); in the assay with LOX IMVI it was 12.2 µM (inactive); in the assay on HOP-62 it was 22.1 µM (inactive); with A498, 28.6 µM (inactive); in the assay on UACC-257 it was 13.9 µM (inactive); in the assay on ACHN, 9.44 µM (inactive). The values for the GI50 with Malme-3M and in the assay on SK-MEL-28 were 5.74 µM (inactive) and 7.48 µM (inactive), respectively.

Take `Cc1cc(Br)cc(C)c1NC(=O)C(=O)C(C(=O)c1ccc2ccccc2c1)C1OC(=O)c2ccccc21` (centres undefined): the GI50 in the assay with COLO 205 was 16.3 µM (inactive); with NCI-H226, 4.85 µM (inactive); with SR, 2.47 µM (inactive); in the assay on SW-620, 8.02 µM (inactive); in the assay on SNB-19 it was 8 µM (inactive); in the assay on KM-20L2 it was 19.2 µM (inactive). Also, the GI50 was 2.31 µM (inactive) in the assay with MOLT-4; 12.1 µM (inactive) with LOX IMVI; 12.2 µM (inactive) in the assay with HOP-62; 12 µM (inactive) in the assay on A498; 10.7 µM (inactive) in the assay with UACC-257; 15.2 µM (inactive) in the assay with ACHN. For the same molecule, the GI50 in the assay on Malme-3M was 14.7 µM (inactive); in the assay on SK-MEL-28, 8.97 µM (inactive).

Take `Cc1cc(NC(=O)NC(=O)c2ccccc2NC(=O)CN(C)C)ccc1Oc1ncc(Br)cn1`: the GI50 with COLO 205 was 2.38 µM (inactive); with NCI-H226, 6.76 µM (inactive); in the assay with SR, 3.24 µM (inactive); in the assay on SW-620 it was 2.02 µM (inactive); in the assay with SNB-19, 9.77 µM (inactive); in the assay with KM-20L2, 4.56 µM (inactive). The GI50 in the assay with MOLT-4 is 4.95 µM (inactive); with T47D it was > 100 µM (inactive); in the assay with MDA-MB-231, 1.95 µM (inactive); with BT-549, > 100 µM (inactive); in the assay with LOX IMVI, 9.98 µM (inactive); in the assay on HOP-62 it was 2.76 µM (inactive). Also, the GI50 in the assay on NCI/ADR-RES was 1.05 µM (active); in the assay on A498, 0.929 µM (active); with UACC-257, 57.5 µM (inactive); with MDA-N, 0.221 µM (active); with MCF7 it was 0.809 µM (active); with ACHN, 18 µM (inactive). In addition, the values for the GI50 in the assay with Malme-3M and with SK-MEL-28 were 6.84 µM (inactive) and 14.9 µM (inactive), respectively.

For `CCOP(=O)(C/C(=N/NC(C)(C)C)C(=O)Nc1nc2ccc(C)cc2s1)OCC`, the GI50 in the assay on COLO 205, in the assay with NCI-H226, in the assay on SR, with SW-620, in the assay with SNB-19 and in the assay with KM-20L2 was > 100 µM (inactive) throughout. Besides, the GI50 with MOLT-4, with LOX IMVI, in the assay on HOP-62, in the assay on A498, with UACC-257 and in the assay with ACHN was > 100 µM (inactive) throughout. Besides, the GI50 in the assay with Malme-3M and in the assay with SK-MEL-28 was > 100 µM (inactive) each time.

Turning to `Cc1ccc(C2(C)NC(=S)N(NC(N)=S)C2=S)cc1` (centres undefined), the GI50 in the assay on COLO 205 is > 100 µM (inactive); in the assay on NCI-H226, > 100 µM (inactive); in the assay with SR, 51.6 µM (inactive); with SW-620, 87.7 µM (inactive); with SNB-19, > 100 µM (inactive); in the assay on KM-20L2, > 100 µM (inactive). For the same molecule, the GI50 in the assay on MOLT-4 was 46.3 µM (inactive); in the assay on LOX IMVI it was 47 µM (inactive); in the assay on HOP-62, > 100 µM (inactive); with A498 it was > 100 µM (inactive); in the assay with UACC-257, > 100 µM (inactive); with ACHN, > 100 µM (inactive). Moreover, the GI50 with Malme-3M and with SK-MEL-28 was > 100 µM (inactive) in each case.

For `COc1cc2ccnc(-c3n[nH]c4cc(OC)c(OC)cc34)c2cc1OC`, the GI50 in the assay on COLO 205, in the assay with NCI-H226, in the assay with SR, in the assay on SW-620, with SNB-19 and in the assay on KM-20L2 was > 100 µM (inactive) throughout. The GI50 with MOLT-4, with LOX IMVI, in the assay on HOP-62, in the assay on A498, in the assay on UACC-257 and in the assay with ACHN was > 100 µM (inactive) each time. For the same molecule, the GI50 with Malme-3M and in the assay on SK-MEL-28 was > 100 µM (inactive) each time.

Take `COc1ccc(CN2C(=O)C(Cc3cc(OC)c(OC)c(C)c3OC)N(C(=O)OC(C)C)C(=O)/C2=C/c2cc(OC)c(OC)c(C)c2OC)cc1` (centres undefined): the GI50 is 45.2 µM (inactive) with COLO 205; 14.8 µM (inactive) with NCI-H226; 15.2 µM (inactive) in the assay with SR; > 100 µM (inactive) with SW-620; > 100 µM (inactive) with SNB-19; > 100 µM (inactive) with KM-20L2. The GI50 is 5.94 µM (inactive) with MOLT-4; > 100 µM (inactive) in the assay on LOX IMVI; > 100 µM (inactive) in the assay with HOP-62; > 100 µM (inactive) with A498; 48 µM (inactive) in the assay with UACC-257; > 100 µM (inactive) in the assay with ACHN. Moreover, the GI50 in the assay on Malme-3M is 64.9 µM (inactive); in the assay on SK-MEL-28, > 100 µM (inactive).

Turning to `Cc1cc(C(C)C)cc(=O)c(O)c1`, the GI50 with COLO 205, with NCI-H226, in the assay on SR, in the assay with SW-620, in the assay with SNB-19 and in the assay with KM-20L2 was > 100 µM (inactive) each time. For the same molecule, the GI50 in the assay on MOLT-4, with LOX IMVI, in the assay with HOP-62, in the assay with A498, in the assay on UACC-257 and in the assay on ACHN was > 100 µM (inactive) each time. The GI50 with Malme-3M and in the assay with SK-MEL-28 was > 100 µM (inactive) each time.

On to `O=c1c(Cl)c(Cl)cnn1CCCl`, for which the GI50 in the assay on COLO 205 is 2.24 µM (inactive); with NCI-H226, 23.2 µM (inactive); in the assay on SW-620 it was 1.9 µM (inactive); with SNB-19, 7.03 µM (inactive); in the assay on KM-20L2 it was 13 µM (inactive); in the assay on MOLT-4 it was 2.54 µM (inactive). The GI50 in the assay on T47D was 3.34 µM (inactive); with BT-549, 3.47 µM (inactive); in the assay with LOX IMVI it was 2.86 µM (inactive); in the assay on HOP-62 it was 17.3 µM (inactive); in the assay on A498, 13.1 µM (inactive); with UACC-257, 4.46 µM (inactive). Besides, the GI50 is 0.904 µM (active) with ACHN, 2.56 µM (inactive) in the assay on Malme-3M and 2.08 µM (inactive) in the assay on SK-MEL-28.

For the molecule `O=C(NO)C(=O)Nc1cc(Cl)ccc1Cl`, the GI50 in the assay on COLO 205 was > 100 µM (inactive); with NCI-H226, > 100 µM (inactive); in the assay with SR, 93.5 µM (inactive); with SW-620, > 100 µM (inactive); with SNB-19, > 100 µM (inactive); in the assay with KM-20L2 it was > 100 µM (inactive). For the same molecule, the GI50 is 83.6 µM (inactive) in the assay on MOLT-4; 16.8 µM (inactive) in the assay with LOX IMVI; > 100 µM (inactive) in the assay on HOP-62; > 100 µM (inactive) in the assay with A498; > 100 µM (inactive) with UACC-257; > 100 µM (inactive) with ACHN. The GI50 in the assay with Malme-3M and in the assay with SK-MEL-28 was > 100 µM (inactive) each time.
